Experimental data: patent US20130102683A1, “MELT-GRANULATED FINGOLIMOD” (RATIOPHARM GMBH, priority 2010, published 2013)
Counter-ions that a name gives are not always drawn.

Experiment: Water adsorption of fingolimod salts under set atmospheric humidity (hygrostat)
Type: physicochemical
Details: atmospheric humidity set at 75% by means of a hygrostat; after 2 weeks
Source text: In addition, experiments on various salts of fingolimod have shown that depending on the ambient conditions, the possibility of water adsorption exists. […] Water adsorption on this scale is detrimental to the storage stability of dosage forms containing fingolimod, especially in the case of tablets, granules or powders.

With `CCCCCCCCc1ccc(CCC(N)(CO)CO)cc1` [hydrochloride of fingolimod] the “increase of water content” value was 7 fold.
